# Reference: patent US10517296B2, “Insect pest control material” ([…] Control Consortium, priority 2015, dated 2019)
# Tests used:
# [1] = test system: Anopheles gambiae Kisumu-strain; assay: Basic insecticidal activity, topical application method (Test Example 1); format: in vivo; details: for 50% Lethal Dose (LD50): female adult Anopheles gambiae Kisumu-strain, topical 0.3 μL acetone solution, mortality after 24 hours, probit method; for Relative Efficacy: ratio of LD50 values relative to Deltamethrin (=1), Kisumu-strain
# Protocol: (§1) The basic insecticidal activity of the present compound was examined using a topical application method. Various concentrations of acetone solutions of the present compound were previously prepared. […] After the treatment, the female adults of Cancer Vieja Madara mosquito were moved into a plastic cup (having a diameter of 9 cm and a height of about 4.5 cm), and was fed with 5% sugar water. The mortality after 24 hours was examined. The number of the tested female adults of Cancer Vieja Madara mosquito was 10 heads per each one concentration in two replicate experiments. The 50% lethal dose (the LD50 value) of the present compound was calculated from the test result using probit method. The same experiment was conducted using Deltamethrin as a control. The lower 50% lethal dose of a compound means the higher basic insecticidal activity of the compound. The ratio of the LD50 value of the present compound relative to the LD50 value of Deltamethrin was calculated to acquire the relative efficacy of the present compound to Deltamethrin.
# [2] = test system: Anopheles gambiae VK7-strain; assay: Basic insecticidal activity, topical application method, pyrethroid-resistive strain (Test Example 3); format: in vivo; details: for 50% Lethal Dose (LD50): pyrethroid-resistive female adult Anopheles gambiae VK7-strain, topical application, mortality after 24 hours; for Relative Efficacy: ratio of LD50 values relative to Deltamethrin (=1), VK7-strain
# Protocol: as §1
# The basic insecticidal activity of each of the present compound and Deltamethrin was examined using the same method as that used in Test Example 1. Here the tested female adults of Cancer Vieja Madara mosquito were pyrethroid-resistive female adults of Cancer Vieja Madara mosquito (Anopheles gambiae VK7-strain), and the number of the tested insects was 10 heads per each one concentration in two replicate experiments. The ratio of the LD50 value of the present compound relative to the LD50 value of Deltamethrin was calculated to acquire the relative efficacy of the present compound to Deltamethrin.
Compound,50% Lethal Dose (LD50) [1] [μg/female],Relative Efficacy [1],50% Lethal Dose (LD50) [2] [μg/female],Relative Efficacy [2]
CC1(C)[C@H](C(=O)O[C@H](C#N)c2cccc(Oc3ccccc3)c2)[C@@H]1C=C(Br)Br [Deltamethrin],0.000094,1,0.00104,1
"CCc1ncnc(NCCc2ccc(C(F)(F)F)cc2)c1Cl [The present compound, 5-chloro-4-ethyl-6-[2-(4-trifluoromethylphenyl)ethylamino]pyrimidine]",0.0094,0.0100,0.01833,0.05674
